The source of these data is the supplement of paper PMC10307832.

What all share (assay): relative viability (nuclei count vs DMSO), 5 days (fraction); higher = more cells survive
Compound in the test “RU-SKI 43 + Navitoclax”: CC[C@@H](C)CNCC(=O)N1CCC2=C([C@@H]1COC3=CC=CC(=C3)C)C=CS2 [RU-SKI 43] + CC1(C)CCC(c2ccc(Cl)cc2)=C(CN2CCN(c3ccc(C(=O)NS(=O)(=O)c4ccc(N[C@H](CCN5CCOCC5)CSc5ccccc5)c(S(=O)(=O)C(F)(F)F)c4)cc3)CC2)C1 [Navitoclax] (partner 0.5 µM)
In outline:
(§1)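 Values are medians from duplicate plates. Each reflects relative viability, defined as the nuclei count of treated wells over that of vehicle wells. Lung cancer cell lines in 1536-well plates were pin-tool dosed one day after seeding with one drug alone or with a fixed anchor-drug dose plus five library-drug doses (not always all listed) in √10 steps, then fixed, stained and imaged at 4× after 5 days.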

Compound in the test “RU-SKI 43 + Tozasertib”: CC[C@@H](C)CNCC(=O)N1CCC2=C([C@@H]1COC3=CC=CC(=C3)C)C=CS2 [RU-SKI 43] + Cc1cc(Nc2cc(N3CCN(C)CC3)nc(Sc3ccc(NC(=O)C4CC4)cc3)n2)n[nH]1 [Tozasertib] (partner 0.1 µM)
In outline:
as §1

Compound in the test “RU-SKI 43 + Phenformin”: CC[C@@H](C)CNCC(=O)N1CCC2=C([C@@H]1COC3=CC=CC(=C3)C)C=CS2 [RU-SKI 43] + N=C(N)NC(=N)NCCc1ccccc1 [Phenformin] (partner 250 µM)
Put shortly: as §1

Compound in the test “Irinotecan + Pictilisib”: CCc1c2c(nc3ccc(OC(=O)N4CCC(N5CCCCC5)CC4)cc13)-c1cc3c(c(=O)n1C2)COC(=O)[C@]3(O)CC [Irinotecan] + CS(=O)(=O)N1CCN(Cc2cc3nc(-c4cccc5[nH]ncc45)nc(N4CCOCC4)c3s2)CC1 [Pictilisib] (partner 1 µM)
Put shortly: as §1

As to UMC-11, the relative viability in the test with RU-SKI 43 + Navitoclax (first compound 0.1 µM) turned out to be 0.276; with RU-SKI 43 + Navitoclax (first compound 0.3162 µM) it was 0.315; with RU-SKI 43 + Navitoclax (first compound 1 µM), 0.321; with RU-SKI 43 + Navitoclax (first compound 3.162 µM), 0.305; in the test with RU-SKI 43 + Navitoclax (first compound 10 µM), 0.267; with RU-SKI 43 + Tozasertib (first compound 0.1 µM), 0.204. Besides, the relative viability in the test with RU-SKI 43 + Tozasertib (first compound 0.3162 µM) came out at 0.197; with RU-SKI 43 + Tozasertib (first compound 1 µM), 0.19; with RU-SKI 43 + Tozasertib (first compound 3.162 µM), 0.175; with RU-SKI 43 + Tozasertib (first compound 10 µM) it was 0.18; with RU-SKI 43 + Phenformin (first compound 0.1 µM) it was 0.349; in the test with RU-SKI 43 + Phenformin (first compound 0.3162 µM), 0.366. Moreover, the relative viability with RU-SKI 43 + Phenformin (first compound 1 µM) amounted to 0.33; with RU-SKI 43 + Phenformin (first compound 3.162 µM) it was 0.32; with RU-SKI 43 + Phenformin (first compound 10 µM), 0.344; in the test with Irinotecan + Pictilisib (first compound 0.6325 µM) it was 0.317; with Irinotecan + Pictilisib (first compound 2 µM), 0.532; with Irinotecan + Pictilisib (first compound 6.325 µM), 0.215. In the test with Irinotecan + Pictilisib (first compound 20 µM), the relative viability is 0.158.
